Measured values reported in US20130158072A1, “KAPPA OPIOID RECEPTOR BINDING LIGANDS” (Research Triangle Institute, priority 2010, published 2013).
“And” between values parts separate entries of the source, which are not always exact repeats. Equal entries are not always repeated. Structures can show the parent of a compound that is named as a salt.

What was measured:
[1] = molecular target: T1, cloned human μ-opioid receptor (Homo sapiens, UniProt P35372); experiment: Inhibition of DAMGO-stimulated [35S]GTPγS binding; format: biochemical; conditions: for μ, DAMGO Ke: antagonism of DAMGO-stimulated [35S]GTPγS binding, CHO cells, means ± SE, at least three experiments; for potency at μ receptors compared to 3: compared with 3
T1 construct: expressed in transfected cells; host or cells: CHO cells
T1 sequence (P35372 whole entry): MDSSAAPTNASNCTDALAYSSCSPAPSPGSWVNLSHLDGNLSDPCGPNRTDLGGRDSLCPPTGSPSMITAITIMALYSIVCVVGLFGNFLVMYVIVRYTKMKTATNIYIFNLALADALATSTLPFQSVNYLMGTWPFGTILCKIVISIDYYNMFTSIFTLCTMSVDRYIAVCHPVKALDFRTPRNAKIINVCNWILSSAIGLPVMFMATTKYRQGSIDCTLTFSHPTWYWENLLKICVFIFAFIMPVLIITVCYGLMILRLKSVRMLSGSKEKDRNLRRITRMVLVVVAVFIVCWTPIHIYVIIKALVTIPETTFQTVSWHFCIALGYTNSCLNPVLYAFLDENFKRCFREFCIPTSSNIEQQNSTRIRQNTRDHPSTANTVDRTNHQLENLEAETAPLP
Procedure: (§1) Test compound assay concentrations ranged from 1-5000 nM, depending on their activity. The Ke values were calculated using the formula: Ke=[L]/DR−1, where [L] is the concentration of test compound and DR is the ratio of agonist EC50 value in the presence or absence of test compound, respectively.

[2] = molecular target: T2, cloned human δ-opioid receptor (Homo sapiens, UniProt P41143); experiment: Inhibition of DPDPE-stimulated [35S]GTPγS binding; format: biochemical; conditions: for δ, DPDPE Ke: antagonism of DPDPE-stimulated [35S]GTPγS binding, CHO cells, means ± SE, at least three experiments
T2 construct: expressed in transfected cells; host or cells: CHO cells
T2 sequence (P41143 whole entry): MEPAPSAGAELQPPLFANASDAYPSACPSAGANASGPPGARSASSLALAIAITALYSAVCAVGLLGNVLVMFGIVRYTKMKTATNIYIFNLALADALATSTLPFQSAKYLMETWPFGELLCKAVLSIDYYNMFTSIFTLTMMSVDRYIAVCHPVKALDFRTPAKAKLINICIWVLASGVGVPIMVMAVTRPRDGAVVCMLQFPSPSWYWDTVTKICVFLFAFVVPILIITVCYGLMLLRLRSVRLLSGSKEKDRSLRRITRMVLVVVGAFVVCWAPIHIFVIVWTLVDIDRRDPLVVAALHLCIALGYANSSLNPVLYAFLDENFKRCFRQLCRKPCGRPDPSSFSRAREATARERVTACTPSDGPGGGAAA
Procedure: as §1

[3] = molecular target: cloned human κ-opioid receptor (Homo sapiens, UniProt P41145); experiment: Inhibition of U69,593-stimulated [35S]GTPγS binding; conditions: for change in potency on N-methylation at the tetrahydroisoquinoline nitrogen: 8c: at all receptor subtypes, others: at κ receptors; for κ, U69,593 Ke: antagonism of U69,593-stimulated [35S]GTPγS binding, CHO cells, means ± SE, at least three experiments; for δ/κ / μ/κ: ratio of Ke values; for δ/κ: κ selectivity relative to δ; for μ/κ: κ selectivity relative to μ
Chain of cloned human κ-opioid receptor (P41145 whole entry): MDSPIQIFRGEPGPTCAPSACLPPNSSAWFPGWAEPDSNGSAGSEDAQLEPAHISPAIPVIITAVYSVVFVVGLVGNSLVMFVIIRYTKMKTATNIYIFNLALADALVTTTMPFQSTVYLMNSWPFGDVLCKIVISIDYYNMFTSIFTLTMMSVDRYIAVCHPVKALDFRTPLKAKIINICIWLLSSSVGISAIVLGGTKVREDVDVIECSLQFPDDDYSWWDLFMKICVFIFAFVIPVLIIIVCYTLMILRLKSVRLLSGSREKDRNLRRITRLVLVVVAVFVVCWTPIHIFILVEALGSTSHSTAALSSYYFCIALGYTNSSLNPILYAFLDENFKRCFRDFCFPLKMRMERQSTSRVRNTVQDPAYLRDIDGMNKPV
Procedure: as §1

COc1cccc([C@]2(C)CCN(C[C@@H](NC(=O)[C@H]3Cc4ccc(O)cc4CN3)C(C)C)C[C@@H]2C)c1 (as salt: hydrochloride) [Compound 8d, (3R)-7-Hydroxy-N-[(1S)-1-{[(3R,4R)-4-(3-methoxyphenyl)-3,4-dimethylpiperidin-1-yl]methyl}-2-methylpropyl]-1,2,3,4-tetrahydroisoquinoline-3-carboxamide]
melting point: > 220 °C (dec.)

CC[C@H](C)[C@@H](CN1CC[C@@](C)(c2cccc(OC)c2)[C@@H](C)C1)NC(=O)[C@H]1Cc2ccc(O)cc2CN1 (as salt: hydrochloride) [Compound 8f, (3R)-7-Hydroxy-N-[(1S,2S)-1-{[(3R,4R)-4-(3-methoxyphenyl)-3,4-dimethylpiperidin-1-yl]methyl}-2-methylbutanyl]-1,2,3,4-tetrahydroisoquinoline-3-carboxamide]
melting point: > 220 °C (dec.)

COc1cccc([C@]2(C)CCN(C[C@@H](NC(=O)[C@@]3(C)Cc4ccc(O)cc4CN3)C(C)C)C[C@@H]2C)c1 (as salt: hydrochloride) [Compound 8h, (3R)-7-Hydroxy-N-[(1S)-1-{[(3R,4R)-4-(3-methoxyphenyl)-3,4-dimethylpiperidin-1-yl]methyl}-2-methylpropyl]-3-methyl-1,2,3,4-tetrahydroisoquinoline-3-carboxamide]
melting point: > 220 °C (dec.)

CC[C@H](C)[C@@H](CN1CC[C@@](C)(c2cccc(O)c2)[C@@H](C)C1)NC(=O)[C@@]1(C)Cc2ccc(O)cc2CN1 (as salt: hydrochloride) [Compound 8i, (3R)-7-Hydroxy-N-[(1S,2S)-1-{[(3R,4R)-4-(3-hydroxyphenyl)-3,4-dimethylpiperidin-1-yl]methyl}-2-methylbutanyl]-3-methyl-1,2,3,4-tetrahydroisoquinoline-3-carboxamide]
melting point: > 220 °C (dec.)

CC[C@H](C)[C@@H](CN1CC[C@@](C)(c2cccc(O)c2)[C@@H](C)C1)NC(=O)[C@H]1Cc2ccc(O)cc2CN1C (as salt: hydrochloride) [Compound 8j, (3R)-7-Hydroxy-N-[(1S,2S)-1-{[(3R,4R)-4-(3-hydroxyphenyl)-3,4-dimethylpiperidin-1-yl]methyl}-2-methylbutanyl]-2-methyl-1,2,3,4-tetrahydroisoquinoline-3-carboxamide]
melting point: 180 °C (dec.)

CC(C)[C@@H](CN1CC[C@@](C)(c2cccc(O)c2)[C@@H](C)C1)NC(=O)[C@H]1Cc2ccc(O)cc2CN1C [Compound 8c]
μ, DAMGO Ke [1]: 210 ± 60 nM
δ, DPDPE Ke [2]: 491 ± 120 nM
change in potency on N-methylation at the tetrahydroisoquinoline nitrogen [3]: reduction in potency at all receptor subtypes
κ, U69,593 Ke [3]: 0.16 nM and 0.16 ± 0.06 nM
δ/κ [3]: 3070
μ/κ [3]: 1313

COc1cccc([C@]2(C)CCN(C[C@@H](NC(=O)[C@H]3Cc4ccc(O)cc4CN3)C(C)C)C[C@@H]2C)c1 [Compound 8d, (3R)-7-Hydroxy-N-[(1S)-1-{[(3R,4R)-4-(3-methoxyphenyl)-3,4-dimethylpiperidin-1-yl]methyl}-2-methylpropyl]-1,2,3,4-tetrahydroisoquinoline-3-carboxamide]
Kb [1]: 24 ± 8 nM
Kb [2]: 21.2 ± 5 nM
Kb [3]: 0.037 ± 0.003 nM
decrease in potency at the κ receptor relative to 3 ([3]; compared with 3): two-fold decrease in potency
δ/κ [3]: 573
μ/κ [3]: 649

CC(C)[C@@H](CN1CC[C@@](C)(c2cccc(O)c2)[C@@H](C)C1)NC(=O)[C@@]1(C)Cc2ccc(O)cc2CN1 [Compound 8e, (3R)-7-Hydroxy-N-[(1S)-1-[(3R,4R)-4-(3-hydroxyphenyl)-3,4-dimethylpiperidin-1-yl]methyl}-(2-methylpropyl]-3-methyl-1,2,3,4-tetrahydroisoquinoline-3-carboxamide]
μ, DAMGO Ke [1]: 3.6 ± 1 nM
δ, DPDPE Ke [2]: 854 ± 210 nM
κ, U69,593 Ke [3]: 0.03 nM and 0.03 ± 0.008 nM

CC[C@H](C)[C@@H](CN1CC[C@@](C)(c2cccc(OC)c2)[C@@H](C)C1)NC(=O)[C@H]1Cc2ccc(O)cc2CN1 [Compound 8f, (3R)-7-Hydroxy-N-[(1S,2S)-1-{[(3R,4R)-4-(3-methoxyphenyl)-3,4-dimethylpiperidin-1-yl]methyl}-2-methylbutanyl]-1,2,3,4-tetrahydroisoquinoline-3-carboxamide]
Kb [1]: 5.1 ± 2 nM
potency at μ receptors compared to 3 [1]: increased potency
Kb [3]: 0.96 ± 0.4 nM

COc1ccc2c(c1)CN[C@@](C)(C(=O)N[C@H](CN1CC[C@@](C)(c3cccc(O)c3)[C@@H](C)C1)C(C)C)C2 [Compound 8g, (3R)-7-Methoxy-N-[(1S)-1-[(3R,4R)-4-(3-hydroxyphenyl)-3,4-dimethylpiperidin-1-yl]methyl}-(2-methylpropyl]-3-methyl-1,2,3,4-tetrahydroisoquinoline-3-carboxamide]
μ, DAMGO Ke [1]: 3.8 ± 1.1 nM
δ, DPDPE Ke [2]: 36.8 ± 6.9 nM
κ, U69,593 Ke [3]: 0.93 ± 0.05 nM
δ/κ [3]: 40
μ/κ [3]: 4

COc1cccc([C@]2(C)CCN(C[C@@H](NC(=O)[C@@]3(C)Cc4ccc(O)cc4CN3)C(C)C)C[C@@H]2C)c1 [Compound 8h, (3R)-7-Hydroxy-N-[(1S)-1-{[(3R,4R)-4-(3-methoxyphenyl)-3,4-dimethylpiperidin-1-yl]methyl}-2-methylpropyl]-3-methyl-1,2,3,4-tetrahydroisoquinoline-3-carboxamide]
Kb [2]: 2200 ± 900 nM
Kb [3]: 0.26 ± 0.1 nM

CC[C@H](C)[C@@H](CN1CC[C@@](C)(c2cccc(O)c2)[C@@H](C)C1)NC(=O)[C@@]1(C)Cc2ccc(O)cc2CN1 [Compound 8i, (3R)-7-Hydroxy-N-[(1S,2S)-1-{[(3R,4R)-4-(3-hydroxyphenyl)-3,4-dimethylpiperidin-1-yl]methyl}-2-methylbutanyl]-3-methyl-1,2,3,4-tetrahydroisoquinoline-3-carboxamide]
Kb [1]: 8.7 ± 2.7 nM
potency at μ receptors compared to 3 [1]: increased potency
Kb [3]: 0.11 ± 0.01 nM

CC[C@H](C)[C@@H](CN1CC[C@@](C)(c2cccc(O)c2)[C@@H](C)C1)NC(=O)[C@H]1Cc2ccc(O)cc2CN1C [Compound 8j, (3R)-7-Hydroxy-N-[(1S,2S)-1-{[(3R,4R)-4-(3-hydroxyphenyl)-3,4-dimethylpiperidin-1-yl]methyl}-2-methylbutanyl]-2-methyl-1,2,3,4-tetrahydroisoquinoline-3-carboxamide]
Kb [1]: 7.2 ± 1.8 nM
potency at μ receptors compared to 3 [1]: increased potency
Kb [2]: 132 ± 24 nM
Kb [3]: 0.11 ± 0.03 nM
change in potency on N-methylation at the tetrahydroisoquinoline nitrogen [3]: decreases in potency
δ/κ [3]: 1200
μ/κ [3]: 66

COc1cccc([C@]2(C)CCN(C[C@@H](NC(=O)[C@H]3Cc4ccc(O)cc4CN3C)C(C)C)C[C@@H]2C)c1 [Compound 8k, (3R)-7-Hydroxy-N-[(1S)-1-{[(3R,4R)-4-(3-methoxyphenyl)-3,4-dimethylpiperidin-1-yl]methyl}-2-methylpropyl]-2-methyl-1,2,3,4-tetrahydroisoquinoline-3-carboxamide]
Kb [1]: 880 ± 220 nM
Kb [2]: 2300 ± 900 nM
Kb [3]: 4.3 ± 2.7 nM
change in potency on N-methylation at the tetrahydroisoquinoline nitrogen [3]: decreases in potency

COc1cccc([C@]2(C)CCN(C[C@@H](NC(=O)[C@@]3(C)Cc4ccc(OC)cc4CN3)C(C)C)C[C@@H]2C)c1 [Compound 8l, (3R)-7-Methoxy-N-[(1S)-1-{[(3R,4R)-4-(3-methoxyphenyl)-3,4-dimethylpiperidin-1-yl]methyl}-2-methylpropyl]-3-methyl-1,2,3,4-tetrahydroisoquinoline-3-carboxamide]
Kb [2]: > 10000 nM
Kb [3]: 15.2 ± 3.7 nM

CC[C@H](C)[C@@H](CN1CC[C@@](C)(c2cccc(OC)c2)[C@@H](C)C1)NC(=O)[C@@]1(C)Cc2ccc(O)cc2CN1 [Compound 8n, (3R)-7-Hydroxy-N-[(1S,2S)-1-{[(3R,4R)-4-(3-methoxyphenyl)-3,4-dimethylpiperidin-1-yl]methyl}-2-methylbutanyl)-3-methyl-1,2,3,4-tetrahydroisoquinoline-3-carboxamide]
Kb [2]: 2100 ± 600 nM
Kb [3]: 0.52 ± 0.2 nM

COc1ccc2c(c1)CN(C)[C@@](C)(C(=O)N[C@H](CN1CC[C@@](C)(c3cccc(O)c3)[C@@H](C)C1)C(C)C)C2 [Compound 8o, (3R)-7-Methoxy-N-[(1S)-1-{[(3R,4R)-4-(3-hydroxyphenyl)-3,4-dimethylpiperidin-1-yl]methyl}-2-methylpropyl]-2,3-dimethyl-1,2,3,4-tetrahydroisoquinoline-3-carboxamide]
Kb [1]: 7 ± 1.4 nM
Kb [3]: 2.2 ± 0.6 nM
change in potency on N-methylation at the tetrahydroisoquinoline nitrogen [3]: decreases in potency

CC[C@H](C)[C@@H](CN1CC[C@@](C)(c2cccc(OC)c2)[C@@H](C)C1)NC(=O)[C@H]1Cc2ccc(O)cc2CN1C [Compound 8p, (3R)-7-Hydroxy-N-[(1S,2S)-1-{[(3R,4R)-4-(3-methoxyphenyl)-3,4-dimethylpiperidin-1-yl]methyl}-2-methylbutanyl]-2-methyl-1,2,3,4-tetrahydroisoquinoline-3-carboxamide]
Kb [1]: 360 ± 120 nM
Kb [2]: > 10000 nM
Kb [3]: 2.03 ± 0.03 nM
change in potency on N-methylation at the tetrahydroisoquinoline nitrogen [3]: decreases in potency
μ/κ [3]: 180

(3R)-7-Methoxy-N-[(1S,2S)-1-{[(3R,4R)-4-(3-hydroxyphenyl)-3,4-dimethylpiperidin-1-yl]}-2-methylbutanyl]-3-methyl-1,2,3,4-tetrahydroisoquinoline-3-carboxamide [Compound 8m]
μ, DAMGO Ke [1]: 17.5 ± 3.6 nM
potency at μ receptors compared to 3 [1]: increased potency
δ, DPDPE Ke [2]: 18.7 ± 1.5 nM
δ/κ [3]: 5
μ/κ [3]: 5
